Results: ChEMBL document CHEMBL1955772, “Cytotoxic terpenoids from Juglans sinensis leaves and twigs” (Bioorg Med Chem Lett, 2012)

What was measured:
B16-F10 = assay: Cytotoxicity against mouse B16F10 cells after 24 hrs by MTS assay; type: functional, cell-based; conditions: B16-F10, 24 h
HEp-2 = assay: Cytotoxicity against human Hep2 cells after 24 hrs by MTS assay; type: functional, cell-based; conditions: HEp-2, 24 h
MCF7 = assay: Cytotoxicity against human MCF7 cells after 24 hrs by MTS assay; type: functional, cell-based; conditions: MCF7, 24 h
[1] = Cytotoxicity against human U87MG cells after 24 hrs by MTS assay; type: functional, cell-based, U-87MG ATCC; conditions: U-87 MG

| Compound | IC50 (B16-F10) | IC50 (HEp-2) | IC50 (MCF7) | IC50 [1] |
| --- | --- | --- | --- | --- |
| C[C@H]1[C@H](C)CC[C@]2(C(=O)O[C@@H]3O[C@H](CO)[C@@H](O)[C@H](O)[C@H]3O)CC[C@]3(C)C(=CC[C@@H]4[C@@]5(C)C[C@@H](O)[C@@H](O)[C@@](C)(CO)[C@@H]5CC[C@]43C)[C@H]12 | > 10 µM | > 10 µM | > 10 µM | > 10 µM |
| CC(C)(O[C@@H]1O[C@H](CO)[C@@H](O)[C@H](O)[C@H]1O)[C@@H]1CC[C@@]2(C)CCC=C(CO)[C@@H]2C1 | > 10 µM | > 10 µM | > 10 µM | > 10 µM |
| CC(C)(O)[C@@H]1C[C@H]2[C@@](C)(C[C@@H]3C[C@@]32C)C[C@@H]1O | > 10 µM | 4.22 µM | 1.81 µM | 1.13 µM |
| CC(C)(O)[C@@H]1C[C@H]2[C@](C)(CC1=O)C[C@@H]1C[C@@]12C | 0.3 µM | 5.25 µM | 4.11 µM | 1.16 µM |
| CO[C@@H]1O[C@@]2(CO)CC[C@@]13CC[C@]1(C)[C@H](C[C@@H](O)[C@@H]4[C@@]5(C)CC[C@H](O)[C@](C)(CO)[C@@H]5CC[C@]41C)[C@@H]3[C@]2(C)O (relative stereo) | 1.53 µM | 5.52 µM | 1.25 µM | 3.29 µM |
| CC1(C)C=C2[C@H]3CC[C@@H]4[C@@]5(C)[C@@H](O)C[C@H](O)C(C)(C)[C@@H]5CC[C@@]4(C)[C@]3(C)CC[C@@]2(C)CC1 (relative stereo) | 0.3 µM | 5.4 µM | 3.86 µM | 1.31 µM |
| CC(C)(O)[C@@H]1C[C@H]2[C@@](C)(C[C@@H]3C[C@@]32C)C[C@H]1O (relative stereo) | > 10 µM | > 10 µM | > 10 µM | > 10 µM |
